{Cy3} = cyanine 3 fluorescent label; {Chol} = cholesterol
Assays:
[1] = system: SK28 xenografted human melanoma; assay: SK28 xenograft survival and tumor growth delay after irradiation with formulated Dbait (Table 2); conditions: IT; for Mean TGD: tumor growth delay
Experimental: The antitumoral effect of formulated Dbait was tested in combination with radiotherapy on SK28 xenografted human melanoma. Dbait/vector complexes were administered 5 hours before each irradiation using intratumoral injections.
SK28 or U87G xenograft tumors were obtained by injecting 10^6 tumor cells into the flanks of adult female nude mice (Charles River strain; L'Arbresle, France). […] After approximately 12 days, when the subcutaneous tumors measured 150-200 mm^3, the mice were separated into homogeneous groups of at most 12 each to receive different treatments. […] Doses were controlled by thermoluminescence dosimetry. A total dose of 30 Gy was delivered in 6 sessions at intervals of three sessions of 5 Gy per week during two weeks. Dbait molecules were prepared in 100 μL of 10% sucrose as previously described for in vitro studies except that PEI mixtures were performed without NaCl (Polyplus-transfection, Strasbourg, France). The Dbait mixtures were incubated for 15 min at room temperature before injection. CoDbait was diluted in 10% sucrose at the required concentration. Intratumoral injections of the indicated amount of Dbait were performed 5 h before each radiotherapy session. Mock treated animals were injected with 100 μL of 10% glucose according to the protocol of the associated assays. Tumor size was assessed by caliper measurements every three days and size was calculated by the formula (2× length×width^2). Mice were weighed and pictures of tumors were taken every week. For ethical reasons, the animals were sacrificed when their tumors reached 2,000 mm^3. The end point used in survival analysis was death day.
Descriptive analyses of the tumor response were performed for each treatment and each tumor type. Day 1 was the day of the first treatment session. All animals were followed for at least 150 days. Median lifetime was estimated according to the Kaplan-Meier method. Tumor growth delay (TGD) was calculated by subtracting the mean tumor volume quadrupling time of the control group from tumor volume quadrupling times of individual mice in each treated group. The mean TGD was calculated for each treated group using the individual measurements. […] A global LogRank was first performed for each group with the same tumor type. Then treatments with Dbait were compared to the mock-treated controls. All tests were considered significant at the 0.05 significance level.

zebrafish embryos = assay: Injection into 1K-stage zebrafish embryos: distribution and 24 h phenotype toxicity; conditions: same concentration of Dbait, by adjuvant
Experimental: More than 100 embryos were analyzed for each condition.
The observation of phenotypic effects 20 hours after injection allowed assessment of Dbait activity and treatment overall toxicity. […] The 24-hour phenotypes were categorized as described (FIG. 3), allowing quantification of the injected mixture's toxicity.
Zebrafish eggs were obtained from natural spawning of wild type or transgenic (flactin:egfp-ras) fish lines. […] Glass capillaries (Harvard Apparatus GC100-10) were pulled with a KopF vertical pipette puller (KopF 720) to make injection needles. 2 to 5 nl of Dbait solution were injected at the animal pole of embryos in cell cycle 10 and immediately processed for confocal laser scanning microscopy imaging (upright Leica SP2) with 40×/0.8 NA water dipping lens objective. Imaging was performed by simultaneous 480 nm (eGFP) and 561 nm (cy3) excitation. […] One-day-old larvae were observed under the dissecting stop and phenotypes categorized as described in FIG. 3. […] Dbait (coDbait)-cy3 50 μM was injected either alone or in combination with PEI25K (ratio N/P=9), PEI11K (ratio N/P-6), or SuperFect (10 μl/1 μg Dbait).

[2] = Fluorescence of formulated cy3-Dbait before transfection; conditions: fluorescence at FL2 value of the cy3-Dbait formulation
Experimental: (§1) The inventors monitored the cellular uptake of the different complexes using a fluorescent cy3-modified Dbait. The initial fluorescence of the cy3-Dbait complex was monitored immediately before transfection. […] Cellular content of human transfected fibroblast cells was measured by flow cytometry analysis.
Cells were directly analyzed by flow cytometry. For immunofluorescence detection by flow cytometry, the cells were fixed in 2% paraformaldehyde for 10 min prior to immunodetection. […] Cells were washed with PBS and resuspended in PBS with 50 μg/mL propidium iodide, 25U/ml RNaseA. Cells were analyzed by a FACSCalibur flow cytometer (BD Biosciences, Franklin Lakes, N.J., USA) and data was analyzed using BD CellQuest Pro (BD Biosciences) and the free WinMDI 2.8 (Scripps Research Institute, La Jolla, Calif., USA) software.

[3] = system: SV40 transformed fibroblasts MRC-5; assay: Flow cytometry cellular uptake of formulated Dbait-cy3 (Table 1); assay type: cell-based, human
Experimental: as §1
The Dbait molecules were made by automated solid-phase oligonucleotide synthesis. […] […] (SEQ ID NO: 4) where H is a hexaethyleneglycol linker. Studies on cells in culture were performed using SV40 transformed fibroblasts MRC-5. Cells were grown at 37° C. in monolayer cultures in complete DMEM (Gibco, Cergy-Pontoise, France) with 10% FCS and antibiotics (100 μg/mL streptomycin and 100 μg/mL penicillin) under conditions of 100% humidity, 95% air and 5% CO2. Unless otherwise specified, transfections were performed in 1.2 mL MEM medium without serum in 60 mm diameter plates. Transfection with jetPEI (Polyplus-transfection, Illkirch, France) was performed at an N/P ratio of 6 according to the manufacturer's instructions. Briefly, Dbait was diluted in 150 mM NaCl and gently mixed with an equal volume of PEI in 150 mM NaCl and added to DMEM medium without serum. coDbait was directly added to DMEM medium without serum. Transfection of Dbait molecules was performed with SuperFect reagent in 1.2 mL DMEM medium with serum (in 60 mm diameter plates) for 5 hours and then cells were left to recover for 1 hour if not indicated otherwise. For electroporation, 1.2×10^6 cells were transfected with 2 μg Dbait using the Gene Pulser II (Bio-Rad, Marnes-la-Coquette, France). At the end of the 5h transfection (time zero), medium was replaced by complete medium and cells were grown for the indicated time before being analyzed.
Cells were transfected with different complexes with Dbait-cy3 for 5 h and allowed to grow 5 hours or 24 hours, then rapidly washed with PBS. Cells were directly analyzed by flow cytometry. For immunofluorescence detection by flow cytometry, the cells were fixed in 2% paraformaldehyde for 10 min prior to immunodetection. […] Cells were washed with PBS and resuspended in PBS with 50 μg/mL propidium iodide, 25U/ml RNaseA. Cells were analyzed by a FACSCalibur flow cytometer (BD Biosciences, Franklin Lakes, N.J., USA) and data was analyzed using BD CellQuest Pro (BD Biosciences) and the free WinMDI 2.8 (Scripps Research Institute, La Jolla, Calif., USA) software.

SK28 melanoma xenograft = conditions: coDbait 0.6 mg IT alone (group 4) or CQ 1 mg i.p. alone (group 3), with irradiation
Excerpt: Survival of five groups of nude mice bearing SK28 melanoma xenografts has been studied.

MRC5 cell line = assay: Flow cytometry analysis of cellular uptake in the MRC5 cell line (Cy3); assay type: cell-based, human
Experimental: Cellular uptake of the Dbait conjugated to cholesterol, in particular CoDbait, in comparison with the Dbait was measured by the inventors by flow cytometry analysis.
Flow cytometry analysis of cellular uptake in the MRC5 cell line performed at 5 hours after the beginning of treatment of various transfection conditions was as described in the table.

[4] = corrected cellular content FL2/fluorescence, Dbait 1.6 μg/mL

Dbait: 32-bp hairpin DNA, SEQ ID NO: 4, hexaethyleneglycol linker; mimics double strand breaks (DNA GCTGTGCCCACAACCCAGCAAACAAGCCTAGA; DNA, backbone not given here; hairpin DNA with hexaethyleneglycol linker)
Mean % TGD ([1]; 6 × 60 μg (3 nmol)): 114% | Median survival time ([1]; 6 × 60 μg (3 nmol)): 63 | Cured mice ([1]; 6 × 60 μg (3 nmol), no recurrence within 300 days): 0 | Relative risk ([1]; 6 × 60 μg (3 nmol), versus mock): 1.40 | Mean TGD ([1]; 6 × 60 μg (3 nmol)): 3 | 24-hour phenotype / toxicity in zebrafish embryos (zebrafish embryos): no effect on development | fluorescence × 10e−6/μg/mL [2]: 6 10e−6/μg/mL | cor MCC 5 hrs [3, 4]: 0.43 | cor MCC 24 hrs [3, 4]: 0.56 | fluorescence distribution of treated cells ([3]; flow cytometry): not different from untreated controls | MCC 24 hrs ([3]; mean cellular content FL2 value, Dbait 1.6 μg/mL): 3.45 | MCC 5 hrs ([3]; mean cellular content FL2 value, Dbait 1.6 μg/mL, chloroquine +/− as in row): 2.65

CCN(CC)CCCC(C)Nc1ccnc2cc(Cl)ccc12 (stereo not shown) [chloroquine, 7-chloro-4-(4-diethylamino-1-methylbutyl-amino)quinoline]
Mean % TGD ([1]; CQ without Dbait): 142% | Median survival time ([1]; CQ without Dbait): 68 | Mean TGD ([1]; CQ without Dbait): 8 | radiosensitization (SK28 melanoma xenograft): neither coDbait (group 4) nor CQ (group 3) showed significant radiosensitization | MCC 5 hrs ([3]; mean cellular content FL2 value, no Dbait, chloroquine only): 3.12

Co_siRNA_H2AX-Cy3: siRNA targeting H2AX with a cyanine 3 and a cholesterol at the 5′ and 3′ of the sense strand (sense CAACAAGAAGACGCGAAUCTT; antisense GAUUCGCGUCUUCUUGUUGTT; sense: 5' {Cy3}, 3' {Chol}, sugars by position and backbone not given here; antisense: chemistry not given here)
Cy3 fluorescence intensity @5 hrs. Mean (MRC5 cell line; 79 nM): 56 | Cy3 fluorescence intensity @5 hrs. Median (MRC5 cell line; 79 nM): 53 | Cy3 fluorescence intensity @5 hrs. Mean (MRC5 cell line; 79 nM + CQ 50 μM): 63 | Cy3 fluorescence intensity @5 hrs. Median (MRC5 cell line; 79 nM + CQ 50 μM): 60 | Cy3 fluorescence intensity @5 hrs. Mean (MRC5 cell line; 986 nM): 710 | Cy3 fluorescence intensity @5 hrs. Median (MRC5 cell line; 986 nM): 661 | Cy3 fluorescence intensity @5 hrs. Mean (MRC5 cell line; 986 nM + CQ 50 μM): 1214 | Cy3 fluorescence intensity @5 hrs. Median (MRC5 cell line; 986 nM + CQ 50 μM): 1144

Source: patent publication US10765758B2, “Optimized in vivo delivery system with endosomolytic agents for nucleic acid conjugates” (ONXEO, priority 2010, dated 2020)
